Experimental data taken from patent publication US20130158112A1, “COMPOSITIONS AND METHODS FOR INHIBITING BETA AMYLOID SECRETION” (priority 2011, published 2013).

Columns and labels:
[1] = tested on: Aβ secretion; assay: Secreted total Aβ ELISA in conditioned media of H4βAPP695 wt cells; format: cell-based, human; settings: for inhibition at 10 µM / inhibition at 30 µM: Homo sapiens, 24 h, H4βAPP695 wt cells; for inhibition at 10 µM: read-out: Total Aβ (% decrease) 10 μM Mean; for inhibition at 30 µM: read-out: Total Aβ (% decrease) 30 μM Mean; for Aβ secretion inhibiting activity (structure activity summary): in words
Experimental: H4βAPP695 wt cells, a human […] cell line stably transfected with a wtβAPP695 expression vector construct under the control of a CMV promoter (kindly provided by Dr. Chris Eckman from Mayo Clinic, Florida) were cultured as previously described. Twenty-four hours before drug treatment, the media was replaced with serum-free media. Cells were then incubated with drugs (dissolved in DMSO) or vehicle for 24 h for collection of conditioned media and cell lysates. For the PKC inhibitors experiment, three inhibitors were treated 30 min prior to drug challenge. Primary cortical neurons were prepared from embryonic day 18 APP and presenilin 1 (APPswe, PSEN1dE9) transgenic mice on the C57BL/6 genetic background (Jackson Laboratories, strain no. 5864) as previously described. THLE-3 human hepatoma cells (from ATCC) were plated in 24-well plates that were precoated with 10 μg/mL bovine serum albumin, 10 μg/mL fibronectin, and 30 μg/mL bovine type I collagen. The cells were grown in BEGM media (Clonetics) until confluent and treated with drugs at 20 μM for 24 h. This conditioned media was harvested, diluted 1:1 in serum-free medium, and incubated with H4βAPP695 wt cells for 24 h prior to analysis of secreted Aβ, which was compared to the effect of 10 μM drug treatments without prior incubation with the THLE-3 cells. Caco-2 cells (ATCC) were plated in 12-well plates with Transwell inserts (Costar) at 70000 cells per well and grown for 21 days. The media volume of the apical and basal chambers was 0.5 and 1.5 mL, respectively. Transepithelial resistance was measured in each well and found to be >160 Ω/cm^2. Drugs at 40 μM and 20 μg/mL of lucifer yellow were added in serum-free medium to the apical chamber. Four hours later, the basal chamber media was harvested and used to measure lucifer yellow fluorescence to confirm monolayer integrity as well as for treatment of H4βAPP695 wt cells for 24 h prior to analysis of secreted Aβ, which was compared to the effect of direct addition of 10 μM of the corresponding drug.

[2] = tested on: H4βAPP695 wt cells; assay: Cytotoxicity by total cell protein content (BCA) of H4βAPP695 wt cells; settings: cytotoxicity

Compound: CCOC(=O)c1cccc(CSCCNC(=O)c2c(Cl)cccc2Cl)c1 [Compound 43, 3-[2-(2,6-Dichloro-benzoylamino)-ethylsulfanylmethyl]-benzoic Acid Ethyl Ester]
- inhibition at 10 µM [1]: 3%
- inhibition at 30 µM [1]: 10.1%
- Aβ secretion inhibiting activity (structure activity summary) [1]: did not yield good activity
- melting point: 43 to 45 °C
- Cell protein (% decrease) 10 μM Mean [2]: 5.8%
- Cell protein (% decrease) 30 μM Mean [2]: 5.4%

Compound: O=C(NCCSCc1cccc(Cl)c1)c1c(Br)cccc1Br [Compound 54, 2,6-Dibromo-N-[2-(3-chloro-benzylsulfanyl)-ethyl]-benzamide]
- inhibition at 30 µM [1]: 83.4%
- Aβ secretion inhibiting activity (structure activity summary) [1]: maintained activity
- melting point: 55 to 57 °C
- Cell protein (% decrease) 10 μM Mean [2]: 6.7%
- Cell protein (% decrease) 30 μM Mean [2]: 20.8%

Compound: O=C(O)c1cccc(CSCCNC(=O)c2c(Cl)cccc2Cl)c1 [Compound 44, 3-[2-(2,6-Dichloro-benzoylamino)-ethylsulfanylmethyl]-benzoic Acid]
- inhibition at 10 µM [1]: -11.4%
- inhibition at 30 µM [1]: -3.8%
- Aβ secretion inhibiting activity (structure activity summary) [1]: did not yield good activity
- melting point: 165 to 166 °C
- Cell protein (% decrease) 10 μM Mean [2]: 7.1%
- Cell protein (% decrease) 30 μM Mean [2]: 3.2%

Compound: O=C(NCCSCc1cccc([N+](=O)[O-])c1)c1c(Cl)cccc1Cl [Compound 40, 2,6-Dichloro-N-[2-(3-nitro-benzylsulfanyl)-ethyl]-benzamide]
- inhibition at 10 µM [1]: > 50%
- inhibition at 30 µM [1]: 72.5%
- Aβ secretion inhibiting activity (structure activity summary) [1]: good activity
- melting point: 76 to 78 °C
- Cell protein (% decrease) 10 μM Mean [2]: 7.5%
- Cell protein (% decrease) 30 μM Mean [2]: 24.6%

Compound: O=C(NCCSCc1cc(O)cc(O)c1)c1c(Cl)cccc1Cl [Compound 59, 2,6-Dichloro-N-[2-(3,5-dihydroxy-benzylsulfanyl)-ethyl]-benzamide]
- inhibition at 10 µM [1]: 3.1%
- inhibition at 30 µM [1]: 17.2%
- Aβ secretion inhibiting activity (structure activity summary) [1]: lost activity
- melting point: 55 to 57 °C
- Cell protein (% decrease) 10 μM Mean [2]: −0.4%
- Cell protein (% decrease) 30 μM Mean [2]: −0.7%

Compound: O=C(NCCSCc1cccc(Cl)c1)c1c(F)cccc1F [Compound 67, N-[2-(3-Chloro-benzylsulfanyl)-ethyl]-2,6-difluoro-benzamide]
- inhibition at 10 µM [1]: 4.9%
- inhibition at 30 µM [1]: 21.6%
- Aβ secretion inhibiting activity (structure activity summary) [1]: not well tolerated
- melting point: 41 to 43 °C
- Cell protein (% decrease) 10 μM Mean [2]: 5.1%
- Cell protein (% decrease) 30 μM Mean [2]: 8.1%

Compound: O=C(NCCSCc1cccc(O)c1)c1c(O)cccc1O [Compound 35, 2,6-Dihydroxy-N-[2-(3-hydroxy-benzylsulfanyl)-ethyl]-benzamide]
- inhibition at 10 µM [1]: -22.5%
- inhibition at 30 µM [1]: -25.2%
- Aβ secretion inhibiting activity (structure activity summary) [1]: not well tolerated
- melting point: 61 to 62 °C
- Cell protein (% decrease) 10 μM Mean [2]: 10.5%
- Cell protein (% decrease) 30 μM Mean [2]: 14.3%

Compound: O=C(NCCOCc1cccc(Cl)c1)c1c(Cl)cccc1Cl [Compound 72, 2,6-Dichloro-N-[2-(3-chloro-benzyloxy)-ethyl]-benzamide]
- inhibition at 10 µM [1]: 10.5%
- inhibition at 30 µM [1]: -5.1%
- Aβ secretion inhibiting activity (structure activity summary) [1]: No tested substitutions in the linker region were well tolerated
- melting point: 70 to 72 °C
- Cell protein (% decrease) 10 μM Mean [2]: −9.9%
- Cell protein (% decrease) 30 μM Mean [2]: 4.2%

Compound: COc1cc(CSCCNC(=O)c2c(Cl)cccc2Cl)cc(OC)c1 [Compound 60, 2,6-Dichloro-N-[2-(3,5-dimethoxy-benzylsulfanyl)-ethyl]-benzamide]
- inhibition at 10 µM [1]: 47.9%
- inhibition at 30 µM [1]: 80.4%
- Aβ secretion inhibiting activity (structure activity summary) [1]: could be tolerated
- melting point: 46 to 47 °C
- Cell protein (% decrease) 10 μM Mean [2]: 2%
- Cell protein (% decrease) 30 μM Mean [2]: −8.7%

Compound: Nc1cccc(CSCCNC(=O)c2c(Cl)cccc2Cl)c1 [Compound 41, N-[2-(3-Amino-benzylsulfanyl)-ethyl]-2,6-dichloro-benzamide]
- inhibition at 10 µM [1]: 0.1%
- inhibition at 30 µM [1]: 17%
- Aβ secretion inhibiting activity (structure activity summary) [1]: did not yield good activity
- melting point: 55 to 56 °C
- Cell protein (% decrease) 10 μM Mean [2]: 15.3%
- Cell protein (% decrease) 30 μM Mean [2]: 13.1%

Compound: O=C(NCCSCc1ccc(Cl)cc1)c1c(Cl)cccc1Cl [Compound 77, 2,6-Dichloro-N-[2-(4-chloro-benzylsulfanyl)-ethyl]-benzamide]
- inhibition at 10 µM [1]: 21.8%
- inhibition at 30 µM [1]: 36.5%
- Aβ secretion inhibiting activity (structure activity summary) [1]: loss of activity
- melting point: 104 to 106 °C
- Cell protein (% decrease) 10 μM Mean [2]: −6.4%
- Cell protein (% decrease) 30 μM Mean [2]: 3%

Compound: O=C(NCCSCc1cccc(Cl)c1)c1ccccc1 [Compound 63, N-[2-(3-Chloro-benzylsulfanyl)-ethyl]-benzamide]
- inhibition at 10 µM [1]: 0.3%
- inhibition at 30 µM [1]: 10.7%
- Aβ secretion inhibiting activity (structure activity summary) [1]: not well tolerated
- melting point: 75 to 76 °C
- Cell protein (% decrease) 10 μM Mean [2]: 2.4%
- Cell protein (% decrease) 30 μM Mean [2]: −4.5%

Compound: O=C(NCC[S+]([O-])Cc1cccc(Cl)c1)c1c(Cl)cccc1Cl (stereo not drawn) [Compound 71, 2,6-Dichloro-N-[2-(3-chloro-phenylmethanesulfinyl)-ethyl]-benzamide]
- inhibition at 10 µM [1]: 4%
- inhibition at 30 µM [1]: -16.5%
- Aβ secretion inhibiting activity (structure activity summary) [1]: No tested substitutions in the linker region were well tolerated
- melting point: 174 to 176 °C
- Cell protein (% decrease) 10 μM Mean [2]: −4.9%
- Cell protein (% decrease) 30 μM Mean [2]: 7.3%

Compound: NC(=O)c1cccc(CSCCNC(=O)c2c(Cl)cccc2Cl)c1 [Compound 45, N-[2-(3-Carbamoyl-benzylsulfanyl)-ethyl]-2,6-dichloro-benzamide]
- inhibition at 10 µM [1]: 6.2%
- inhibition at 30 µM [1]: 32.3%
- Aβ secretion inhibiting activity (structure activity summary) [1]: did not yield good activity
- melting point: 148 to 150 °C
- Cell protein (% decrease) 10 μM Mean [2]: −2.8%
- Cell protein (% decrease) 30 μM Mean [2]: −8.6%

Compound: O=C(NC1CC1)c1cccc(CSCCNC(=O)c2c(Cl)cccc2Cl)c1 [Compound 68, 2,6-Dichloro-N-[2-(3-cyclopropylcarbamoyl-benzylsulfanyl)-ethyl]-benzamide]
- inhibition at 10 µM [1]: 1.9%
- inhibition at 30 µM [1]: 11%
- Aβ secretion inhibiting activity (structure activity summary) [1]: did not yield good activity
- melting point: 42 to 43 °C
- Cell protein (% decrease) 10 μM Mean [2]: 0%
- Cell protein (% decrease) 30 μM Mean [2]: −1%

Compound: O=C(NCCSCc1cccc(F)c1)c1c(F)cccc1F [Compound 46, 2,6-Difluoro-N-[2-(3-fluoro-benzylsulfanyl)-ethyl]-benzamide]
- inhibition at 10 µM [1]: -16.8%
- inhibition at 30 µM [1]: -15.5%
- melting point: 39 to 41 °C
- Cell protein (% decrease) 10 μM Mean [2]: 0.1%
- Cell protein (% decrease) 30 μM Mean [2]: 1.8%

Compound: COc1cccc(CSCCNC(=O)c2c(Cl)cccc2OC)c1 [Compound 42, 2-Chloro-6-methoxy-N-[2-(3-methoxy-benzylsulfanyl)-ethyl]-benzamide]
- inhibition at 10 µM [1]: -2.9%
- inhibition at 30 µM [1]: -4.7%
- melting point: 58 to 59 °C
- Cell protein (% decrease) 10 μM Mean [2]: 1.9%
- Cell protein (% decrease) 30 μM Mean [2]: 9.3%
